In article PMC9599613 (Biomolecules, 2022):
Like-named read-outs stand apart in the source and are kept apart here.

Columns and labels:
human recombinant 5-LOX = biological target: T1, human recombinant 5-LOX (Homo sapiens, UniProt P09917); test: biochemical; details: for inhibition at 62.5 µg/mL / inhibition at 125 µg/mL / inhibition at 250 µg/mL / inhibition at 500 µg/mL / inhibition at 1000 µg/mL: read-out: % 5-LOX Inhibition
T1 sequence (P09917 1-674): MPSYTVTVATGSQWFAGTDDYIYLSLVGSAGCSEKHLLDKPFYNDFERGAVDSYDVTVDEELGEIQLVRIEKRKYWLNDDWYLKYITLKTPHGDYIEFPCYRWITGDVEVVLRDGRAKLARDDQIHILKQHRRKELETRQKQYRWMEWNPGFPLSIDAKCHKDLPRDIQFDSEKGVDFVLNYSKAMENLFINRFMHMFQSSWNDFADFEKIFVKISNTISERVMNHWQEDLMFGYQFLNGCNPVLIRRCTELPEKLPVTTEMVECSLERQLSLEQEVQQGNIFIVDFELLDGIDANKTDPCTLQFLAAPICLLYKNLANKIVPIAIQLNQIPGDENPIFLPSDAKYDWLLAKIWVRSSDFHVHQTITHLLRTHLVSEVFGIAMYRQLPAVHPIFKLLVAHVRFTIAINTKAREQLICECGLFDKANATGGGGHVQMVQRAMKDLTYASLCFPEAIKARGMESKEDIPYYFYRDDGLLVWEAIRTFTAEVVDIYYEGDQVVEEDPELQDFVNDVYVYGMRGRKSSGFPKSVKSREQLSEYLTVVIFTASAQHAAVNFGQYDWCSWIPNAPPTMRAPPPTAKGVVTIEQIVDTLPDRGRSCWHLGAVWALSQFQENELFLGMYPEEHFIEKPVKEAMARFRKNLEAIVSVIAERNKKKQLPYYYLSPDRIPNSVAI
Procedure: The lipoxygenase assay on our test compounds was performed by utilizing human recombinant 5-LOX [65]. […] The enzyme solution with a concentration of 10,000 U/mL was prepared, whereas 80 mM linoleic acid solution was used as a substrate. Solutions were prepared in a phosphate buffer (50 mM) with a pH of 6.3, which was also utilized as the blank. To start, various concentrations of our test samples were dissolved in 0.25 mL of the buffer, to which 0.25 mL enzyme solution was added and incubated at 25 °C for 5 min. Afterward, the substrate solution (0.1 mL) was added to the mixture and shaken well. […] In this assay, the standard drug was montelukast, and using the following formula, the % inhibitions were calculated: % enzyme inhibition=X−X1/X×100 where X = absorbance of the negative control (with no test sample), and X1 = absorbance of the test compound.

[1] = DPPH free radical scavenging assay
Procedure: The antioxidant potentials of isolated compounds (phytosteroids 1 and 2) were determined following the DPPH standard assay. Initially, DPPH (24 mg) was dissolved in methanol (100 mL). Stock solutions of the test compounds were prepared in different dilutions (62.50–1000 μg/mL). From each dilution, 1 mL was mixed with 1 mL of the DPPH solution. The solution mixtures were incubated at room temperature for 0.5 h. Afterward, absorbance was recorded at 517 nm with a UV-visible spectrophotometer. Ascorbic acid was the standard drug, whereas the DPPH solution without the compound was negative control. The percent radical scavenging potential of the test compounds was calculated using the following formula: % DPPH activity=X−X1/X×100 where X = absorbance of the control, and X1 = absorbance of the test compound.

[2] = ABTS free radical scavenging assay
Procedure: The antioxidant potentials of isolated phytosteroids 1 and 2 were also determined using the ABTS (2,2′-azino-bis(3-ethylbenzothiazoline-6-sulfonic acid)) standard method. […] This created free radicals within the sample. Afterward, the addition of 50% methanol and the ABTS radical cation solution were adjusted to pH 7.4 by dilution with the phosphate buffer (pH 7.4). […] The positive control was ascorbic acid, and the assay was repeated in triplicate. The percent radical scavenging potential of the test compounds was calculated using the standard reported formula.

COX-1 = COX-1 (Homo sapiens, UniProt P23219); test: biochemical; details: read-out: % COX-1 Inhibition
Procedure: (§1) The Cyclooxygenase enzymes (COX-1 and 2) inhibitory potential of our test compounds was determined according to the previously reported procedure. […] The enzyme solutions with a concentration of 0.7–0.8 μg/10 μL (COX-1) and 300 U/mL (COX-2) were prepared. To start the assay, for enzyme activation, 10 µL enzyme solution (kept in a cool temperature of 4 °C for 5 min) and cofactor containing hematin (50 µL, 1 mM), glutathione (0.9 mM) and TMPD in a Tris-buffer (0.1 M) with a pH 8.0 was added. After that, 60 µL of the enzyme solution was added to 20 µL of the test samples of various concentrations and incubated at room temperature for 5 to 10 min. Then, 20 µL of arachidonic acid (30 mM) was added to start the reaction. The mixture was then again incubated for 15 min at 37 °C, and absorbances were measured at 570 nm with UV-visible spectrophotometer. […] The % enzyme inhibitions were calculated by using the previously reported formula.

[3] = biological target: T2, acetylcholinesterase (AChE) (Electrophorus electricus, UniProt O42275); test: Anticholinesterase assay (Ellman's), AChE inhibition; type: biochemical
T2 construct: acetylcholinesterase (AChE, obtained from Electrophorus electricus); from tissue
Procedure: (§2) This enzyme method relied on the hydrolytic of acetyl cholinethioiodide (ATChI) by acetylcholinesterase and butyrylthiocholine iodide (BTchI) by butyrylcholinesterase. As a result of this breakdown, 5-thio-2-nitrobenoate anions formed. […] The absorption was measured with a spectrophotometer, as per the protocols. […] An amount of 0.1 M phosphate buffer (8.0 ± 0.1 pH) solution was prepared, whose final pH was adjusted by using the KOH solution.
(§3) In this assay, 50 µL enzyme solution and 50 µL DTNB reagent were added to 1 mL test samples in a cuvette and then incubated at 30 °C for 15 min. Afterward, a 50 µL substrate solution was added to the mixture.

[4] = biological target: T3, butyrylcholinesterase (BChE) (Equus caballus, UniProt P81908); test: Anticholinesterase assay (Ellman's), BChE inhibition; type: biochemical, equine
T3 construct: butyrylcholinesterase (BChE, obtained from equine serum); from tissue; host or cells: equine serum
Procedure: as §2, §3

COX-2 = biological target: T4, COX-2 (Homo sapiens, UniProt P35354); test: biochemical
T4 sequence (P35354 18-604): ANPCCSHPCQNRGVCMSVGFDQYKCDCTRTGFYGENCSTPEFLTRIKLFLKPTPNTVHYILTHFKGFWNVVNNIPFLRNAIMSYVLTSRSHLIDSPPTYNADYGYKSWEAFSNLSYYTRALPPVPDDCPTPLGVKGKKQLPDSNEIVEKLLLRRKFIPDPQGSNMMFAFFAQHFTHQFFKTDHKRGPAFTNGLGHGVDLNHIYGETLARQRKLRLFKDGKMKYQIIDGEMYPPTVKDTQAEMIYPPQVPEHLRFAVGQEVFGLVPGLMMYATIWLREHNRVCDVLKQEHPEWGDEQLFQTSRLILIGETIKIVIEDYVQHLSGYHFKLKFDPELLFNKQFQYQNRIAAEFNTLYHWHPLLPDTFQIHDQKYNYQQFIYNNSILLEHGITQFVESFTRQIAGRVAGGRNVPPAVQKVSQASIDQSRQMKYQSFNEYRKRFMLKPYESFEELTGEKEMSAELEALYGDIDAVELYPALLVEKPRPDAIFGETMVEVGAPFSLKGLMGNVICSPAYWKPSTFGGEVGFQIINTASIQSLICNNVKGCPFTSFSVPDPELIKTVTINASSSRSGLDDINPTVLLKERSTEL
Procedure: as §1

[5] = 1000 μg/mL, listed as compound 1

Chain of COX-1 (P23219 24-599): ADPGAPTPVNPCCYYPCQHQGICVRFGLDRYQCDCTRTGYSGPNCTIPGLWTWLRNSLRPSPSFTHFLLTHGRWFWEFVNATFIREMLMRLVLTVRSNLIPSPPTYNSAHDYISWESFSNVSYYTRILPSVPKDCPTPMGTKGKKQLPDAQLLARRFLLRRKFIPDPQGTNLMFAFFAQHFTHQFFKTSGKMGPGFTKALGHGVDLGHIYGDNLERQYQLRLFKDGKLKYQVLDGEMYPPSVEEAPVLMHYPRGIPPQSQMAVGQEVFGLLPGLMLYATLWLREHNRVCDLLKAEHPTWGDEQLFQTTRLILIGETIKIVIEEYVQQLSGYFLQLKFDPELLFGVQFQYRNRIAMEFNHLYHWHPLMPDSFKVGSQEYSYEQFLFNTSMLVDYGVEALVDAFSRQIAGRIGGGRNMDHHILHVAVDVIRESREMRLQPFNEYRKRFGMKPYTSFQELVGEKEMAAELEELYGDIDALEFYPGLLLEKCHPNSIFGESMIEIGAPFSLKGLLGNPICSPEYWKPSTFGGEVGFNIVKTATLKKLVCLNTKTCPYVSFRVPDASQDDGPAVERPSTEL
T2 sequence (O42275 24-633): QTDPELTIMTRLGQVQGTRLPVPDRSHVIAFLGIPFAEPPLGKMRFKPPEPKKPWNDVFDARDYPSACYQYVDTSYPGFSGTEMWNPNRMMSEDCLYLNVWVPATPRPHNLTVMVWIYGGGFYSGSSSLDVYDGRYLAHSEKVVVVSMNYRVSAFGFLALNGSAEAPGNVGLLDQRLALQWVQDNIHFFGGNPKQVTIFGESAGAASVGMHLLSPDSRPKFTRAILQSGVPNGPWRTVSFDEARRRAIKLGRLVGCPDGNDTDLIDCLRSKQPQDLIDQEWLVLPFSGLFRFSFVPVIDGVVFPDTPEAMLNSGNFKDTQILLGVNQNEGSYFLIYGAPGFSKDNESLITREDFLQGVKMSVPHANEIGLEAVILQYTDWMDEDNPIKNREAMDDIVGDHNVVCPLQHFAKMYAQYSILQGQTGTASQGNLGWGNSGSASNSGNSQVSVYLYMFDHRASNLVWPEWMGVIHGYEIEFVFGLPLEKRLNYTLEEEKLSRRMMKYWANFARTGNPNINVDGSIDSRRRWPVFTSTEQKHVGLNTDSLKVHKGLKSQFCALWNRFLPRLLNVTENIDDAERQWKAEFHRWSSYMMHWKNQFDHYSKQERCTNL
T3 sequence (P81908 whole entry): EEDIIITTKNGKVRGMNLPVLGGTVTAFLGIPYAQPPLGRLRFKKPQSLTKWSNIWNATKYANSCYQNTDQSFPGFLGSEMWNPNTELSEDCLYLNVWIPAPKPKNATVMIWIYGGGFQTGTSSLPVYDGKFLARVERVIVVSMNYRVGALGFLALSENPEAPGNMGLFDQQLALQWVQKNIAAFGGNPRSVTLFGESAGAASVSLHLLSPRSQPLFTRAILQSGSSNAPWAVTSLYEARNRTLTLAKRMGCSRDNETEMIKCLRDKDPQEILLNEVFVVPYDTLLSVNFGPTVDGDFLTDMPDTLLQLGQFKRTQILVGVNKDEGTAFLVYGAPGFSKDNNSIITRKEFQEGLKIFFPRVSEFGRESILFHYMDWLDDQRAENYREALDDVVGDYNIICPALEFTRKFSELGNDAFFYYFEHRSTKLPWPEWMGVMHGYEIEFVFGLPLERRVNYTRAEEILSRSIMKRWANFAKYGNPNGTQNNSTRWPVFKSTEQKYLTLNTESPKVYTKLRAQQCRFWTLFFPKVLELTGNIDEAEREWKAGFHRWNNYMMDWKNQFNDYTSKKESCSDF

## CC(C)(O)c1ccccc1CC[C@@H](SCC1(CC(=O)O)CC1)c1cccc(/C=C/c2ccc3ccc(Cl)cc3n2)c1 [Montelukast, montelukast, reference compound]
Human recombinant 5-LOX
  IC50: 7.68 µM
Human recombinant 5-LOX; 62.50 μg/mL
  inhibition at 62.5 µg/mL: 74.17 ± 0.72%
Human recombinant 5-LOX; 125 μg/mL
  inhibition at 125 µg/mL: 79.6 ± 0.9%
Human recombinant 5-LOX; 250 μg/mL
  inhibition at 250 µg/mL: 85.5 ± 0.4%
Human recombinant 5-LOX; 500 μg/mL
  inhibition at 500 µg/mL: 89.4 ± 1.65%
Human recombinant 5-LOX; 1000 μg/mL
  inhibition at 1000 µg/mL: 93.55 ± 0.4%

## O=C1O[C@H]([C@@H](O)CO)C(O)=C1O [AA, Ascorbic acid, reference compound]
[1]
  DPPH IC50: 11.47 µg/mL
[1]; 62.5 μg/mL
  Percent DPPH Activity (mean ± SEM): 61.30 ± 0.52%
[1]; 125 μg/mL
  Percent DPPH Activity (mean ± SEM): 66.37 ± 0.58%
[1]; 250 μg/mL
  Percent DPPH Activity (mean ± SEM): 72.29 ± 0.43%
[1]; 500 μg/mL
  Percent DPPH Activity (mean ± SEM): 78.58 ± 0.56%
[1]; 1000 μg/mL
  Percent DPPH Activity (mean ± SEM): 84.39 ± 0.60%
[2]
  ABTS IC50: 21.72 µg/mL
[2]; 62.5 μg/mL
  Percent ABTS Activity (mean ± SEM): 53.00 ± 0.57%
[2]; 125 μg/mL
  Percent ABTS Activity (mean ± SEM): 62.50 ± 0.44%
[2]; 250 μg/mL
  Percent ABTS Activity (mean ± SEM): 66.33 ± 0.33%
[2]; 500 μg/mL
  Percent ABTS Activity (mean ± SEM): 74.66 ± 1.20%
[2]; 1000 μg/mL
  Percent ABTS Activity (mean ± SEM): 79.00 ± 0.16%

## CC(=O)Oc1ccccc1C(=O)O [Aspirin, aspirin, reference compound]
COX-1; 62.50 μg/mL
  inhibition at 62.5 µg/mL: 51.68 ± 0.22%
COX-1; 125 μg/mL
  inhibition at 125 µg/mL: 59.84 ± 0.32%
COX-1; 250 μg/mL
  inhibition at 250 µg/mL: 66.43 ± 0.29%
COX-1; 500 μg/mL
  inhibition at 500 µg/mL: 71.88 ± 0.2%
COX-1; 1000 μg/mL
  inhibition at 1000 µg/mL: 75.89 ± 0.2%

## CC(C)C/C=C\C(C)C1CCC2C3CCC4=CC(=O)CCC4(C)C3CCC12C (stereo not drawn) [Compound 1, (Z)-10,13-dimethyl-17-(6-methylhept-3-en-2-yl)-1,2,6,7,8,9,10,11,12,13,14,15,16,17-tetradecahydro-3H-cyclopenta[a]phenanthren-3-one]
[3]; 62.5 μg/mL
  AChE inhibition (%): 55.56 ± 0.52 %
[3]; 125 μg/mL
  AChE inhibition (%): 64.78 ± 0.60 %
[3]; 250 μg/mL
  AChE inhibition (%): 71.46 ± 0.53 %
[3]; 500 μg/mL
  AChE inhibition (%): 77.68 ± 0.63 %
[3]; 1000 μg/mL
  AChE inhibition (%): 85.72 ± 0.79 ^ns %
[3]; read-out: AChE IC50 (converted)
  IC50: 53 µM
[4]
  IC50: 71.5 µM
[4]; 62.5 μg/mL
  Percent BChE (mean ± SEM): 59.81 ± 0.65 %
[4]; 125 μg/mL
  Percent BChE (mean ± SEM): 66.65 ± 0.78 %
[4]; 250 μg/mL
  Percent BChE (mean ± SEM): 75.70 ± 0.62 %
[4]; 500 μg/mL
  Percent BChE (mean ± SEM): 80.76 ± 0.63 %
[4]; 1000 μg/mL
  Percent BChE (mean ± SEM): 84.83 ± 0.62 %
COX-2
  IC50: 28 µM
COX-2; read-out: % COX-2 Inhibition
  inhibition at 62.5 µg/mL: 61.1 ± 0.7%
  inhibition at 125 µg/mL: 66.4 ± 0.7%
  inhibition at 250 µg/mL: 72.7 ± 0.51%
  inhibition at 500 µg/mL: 78.83 ± 0.73%
  inhibition at 1000 µg/mL: 83.13 ± 0.8%
COX-1
  inhibition at 62.5 µg/mL: 22.4 ± 0.49%
  inhibition at 125 µg/mL: 40.6 ± 0.84%
  inhibition at 250 µg/mL: 43.5 ± 0.46%
  inhibition at 500 µg/mL: 59.56 ± 0.45%
  inhibition at 1000 µg/mL: 66.29 ± 0.43%
[1]
  DPPH IC50: 314.78 µg/mL
[1]; 62.5 μg/mL
  Percent DPPH Activity (mean ± SEM): 31.53 ± 0.71 %
[1]; 125 μg/mL
  Percent DPPH Activity (mean ± SEM): 37.51 ± 0.77 %
[1]; 250 μg/mL
  Percent DPPH Activity (mean ± SEM): 45.75 ± 0.58 %
[1]; 500 μg/mL
  Percent DPPH Activity (mean ± SEM): 56.45 ± 0.49 %
[1]; 1000 μg/mL
  Percent DPPH Activity (mean ± SEM): 64.79 ± 0.62 %
[1]; [5]
  Percent DPPH Activity (mean ± SEM): 64.79 ± 0.62%
[2]
  ABTS IC50: 369.86 µg/mL
[2]; 62.5 μg/mL
  Percent ABTS Activity (mean ± SEM): 29.67 ± 0.61 %
[2]; 125 μg/mL
  Percent ABTS Activity (mean ± SEM): 35.69 ± 0.77 %
[2]; 250 μg/mL
  Percent ABTS Activity (mean ± SEM): 43.83 ± 0.56 %
[2]; 500 μg/mL
  Percent ABTS Activity (mean ± SEM): 54.60 ± 0.80 %
[2]; 1000 μg/mL
  Percent ABTS Activity (mean ± SEM): 62.61 ± 0.77 %
[2]; [5]
  Percent ABTS Activity (mean ± SEM): 62.61 ± 0.77%
Human recombinant 5-LOX
  IC50: 19.3 µM
  inhibition at 62.5 µg/mL: 65.68 ± 0.64%
  inhibition at 125 µg/mL: 71.42 ± 0.46%
  inhibition at 250 µg/mL: 76.53 ± 0.41%
  inhibition at 500 µg/mL: 82.45 ± 0.55%
  inhibition at 1000 µg/mL: 87.63 ± 0.64%
